Source: paper PMC9019100, “Development of NanoLuc-targeting protein degraders and a universal reporter system to benchmark tag-targeted degradation platforms” (Nature Communications, 2022)
Several values for one entry are separate records, joined by “and”; a condition that tells them apart may be missing. Equal values may be shown once. Read-outs that look alike come from different tables or passages of the source. Peptide text beside a SMILES is read from it. * marks the point of attachment. Cbz = O=C(OCc1ccccc1)*

What was measured:
[1] = target: T1, Halo-EGFP-NanoLuc-FKBP^F36V (H-E-N-F) fusion protein (UniProt P0A3G2+P62942+Q9GV45, A155T/A167V/A172T/A224E/A31E/A60N/A81I/C128F/C176G/D78G/E160K/E257K/F37V/F95D/H272N/I117V/K175M/K195N/K70R/L47V/L54V/L88M/L99Q/M102K/N193R/N227D/P142E/P291S/Q151K/Q38R/Q45L/S2A/S58T/T264A/V71I/Y165I/Y273L/Y87F); type: cell-based
NanoLuc = settings: read-out: IC50 against the enzymatic activity of NanoLuc; cited from earlier work
[2] = target: recombinant NanoLuc enzyme (Oplophorus gracilirostris, UniProt Q9GV45, A31E/A60N/A81I/F95D/I117V/K70R/L54V/L99Q/M102K/N193R/P142E/Q151K/Q38R/Q45L/V71I/Y165I); type: biochemical; settings: replicates
[3] = target: T1, Halo-EGFP-NanoLuc-FKBP^F36V (H-E-N-F) fusion protein; type: cell-based; settings: 125-500 nM, 5 h
wild-type HT29 cells = test: Necroptosis assay (PI exclusion, flow cytometry), wild-type HT29 cells, TNF+SM+IDN; type: cell-based, human; settings: sheet S5F
Protocol: To simulate necroptosis, cells were seeded into 96-well plates ±40 ng/mL doxycycline, to induce construct expression, and treated with 100 ng/mL FLAG-TNF (recombinant human, in-house), 500 nM compound A Smac mimetic (kindly gifted by TetraLogics Pharmaceuticals) and 5 μM IDN-6556 (Cayman) or 10 uM Z-VAD-fmk (Selleckchem) overnight (16–24 h). Degrader compounds or a DMSO vehicle control were added for 5 h, as stated in the Fig. legends. Cells were detached using Trypsin-EDTA (Merck) and resuspended in cell supernatants containing 10 μg/mL propidium iodide (PI). PI exclusion analysis was performed using an LSR II flow cytometer (Becton Dickinson, NJ) with 10,000 single-cell events per sample. Flow cytometry data were analysed using WEASEL version 2.7 software (Frank Battye).
Supplementary Figure 5. […]
NC4. Data are representative of N = 3 independent experiments. f-h. HT29 cells were stimulated with DMSO (control) or 500 nM of degrader for 5 hours before the addition of TNF (100 ng/mL) + Smac mimetic (compound A; 500 nM-1 µM) + caspase inhibitor; Emricasan (IDN) (5 µM), for 24 hours. Cell death was assessed by flow cytometric analysis of PI exclusion. N = 3 replicates (symbols) is shown, EB; mean ± SD. Data are representative of N = 3 independent experiments. i. Representative flow cytometry gating strategy. Source data are provided as a Source Data file.

[4] = 62.5nM, sheet S3B, replicate wells
[5] = 250nM, sheet S3B, replicate wells
[6] = 500nM, sheet S3B, replicate wells
[7] = 1uM, sheet S3B, replicate wells

Chain of recombinant NanoLuc enzyme (Q9GV45 other isoform, or with tags, fused parts or gaps with the stated changes): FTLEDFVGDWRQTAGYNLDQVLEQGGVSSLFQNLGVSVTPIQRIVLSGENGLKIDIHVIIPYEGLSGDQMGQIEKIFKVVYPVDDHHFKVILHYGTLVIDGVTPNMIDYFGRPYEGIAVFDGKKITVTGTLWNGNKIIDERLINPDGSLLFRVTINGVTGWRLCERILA
T1 sequence (Q9GV45 other isoform, or with tags, fused parts or gaps with the stated changes): as above
T1 sequence (P0A3G2 other isoform, or with tags, fused parts or gaps with the stated changes): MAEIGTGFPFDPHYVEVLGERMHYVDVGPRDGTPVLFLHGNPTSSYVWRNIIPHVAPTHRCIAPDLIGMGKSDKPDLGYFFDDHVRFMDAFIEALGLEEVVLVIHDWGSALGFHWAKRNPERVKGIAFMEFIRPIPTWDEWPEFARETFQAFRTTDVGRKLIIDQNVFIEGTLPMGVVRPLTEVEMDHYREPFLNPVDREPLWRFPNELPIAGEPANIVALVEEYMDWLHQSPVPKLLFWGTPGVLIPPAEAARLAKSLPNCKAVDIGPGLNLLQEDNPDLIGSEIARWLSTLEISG
T1 sequence (P62942 whole entry F37V, the tested form may be a part): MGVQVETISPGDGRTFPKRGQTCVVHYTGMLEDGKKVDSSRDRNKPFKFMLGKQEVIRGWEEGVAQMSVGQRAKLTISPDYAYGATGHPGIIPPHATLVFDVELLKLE

SMILES: CCc1cccc(N(CC)C(=O)Cn2c(C(=O)NC3CCC(C(=O)NCCCCCCCC(=O)NCCCCNc4cccc5c4C(=O)N(C4CCC(=O)N(C)C4=O)C5=O)CC3)cc3ccccc32)c1 (stereo not drawn) [NC*]
- NanoLuc luminescence, Blank corrected (470-80) ([1]; 62.5nM, 2h, replicate wells): 6632 and 6164 and 5786
- NanoLuc luminescence, Blank corrected (470-80) ([1]; 62.5nM, 4h, replicate wells): 6756 and 7430 and 5962 and 6824
- NanoLuc luminescence, Blank corrected (470-80) ([1]; 62.5nM, 6h, replicate wells): 6820 and 5574 and 6168
- NanoLuc luminescence, Blank corrected (470-80) ([1]; 62.5nM, 8h, replicate wells): 5136 and 5355 and 4609
- NanoLuc luminescence, Blank corrected (470-80) ([1]; 62.5nM, 10h, replicate wells): 4237 and 3067 and 4015
- NanoLuc luminescence, Blank corrected (470-80) ([1]; 250nM, 2h, replicate wells): 1984 and 2219 and 1857
- NanoLuc luminescence, Blank corrected (470-80) ([1]; 250nM, 4h, replicate wells): 1613 and 1684 and 1340
- NanoLuc luminescence, Blank corrected (470-80) ([1]; 250nM, 6h, replicate wells): 1527 and 1526 and 1826 and 1766
- NanoLuc luminescence, Blank corrected (470-80) ([1]; 250nM, 8h, replicate wells): 1602 and 1230 and 1627
- NanoLuc luminescence, Blank corrected (470-80) ([1]; 250nM, 10h, replicate wells): 919 and 829 and 1005
- NanoLuc luminescence, Blank corrected (470-80) ([1]; 500nM, 2h, replicate wells): 1232 and 850 and 1011 and 825
- NanoLuc luminescence, Blank corrected (470-80) ([1]; 500nM, 4h, replicate wells): 934 and 992 and 902
- NanoLuc luminescence, Blank corrected (470-80) ([1]; 500nM, 6h, replicate wells): 854 and 738 and 679 and 842
- NanoLuc luminescence, Blank corrected (470-80) ([1]; 500nM, 8h, replicate wells): 717 and 620 and 849
- NanoLuc luminescence, Blank corrected (470-80) ([1]; 500nM, 10h, replicate wells): 481 and 501 and 461

SMILES: CC(C)C[C@@H](C=O)NC(=O)[C@H](CC(C)C)NC(=O)[C@H](CC(C)C)NC(=O)OCc1ccccc1 [MG132] (Cbz-Leu-Leu-Leu-aldehyde)
- Blank corrected Raw Data (470-80) ([1]; +dox, MG132 (10uM) alone (DMSO instead of PROTAC)): 83521 and 88764 and 88216 and 91215
- Fold Change ([1]; +dox, MG132 (10uM) alone (DMSO instead of PROTAC), fold of -dox well): 83.7723 and 89.0311 and 88.4814 and 91.4895

SMILES: CCc1cccc(N(CC)C(=O)Cn2c(C(=O)N[C@H]3CC[C@H](C(=O)NCCCCCCCC(=O)O)CC3)cc3ccccc32)c1 [NanoLuc inhibitor 2]
- IC50 (NanoLuc): 4.2 nM

SMILES: CCc1cccc(N(CC)C(=O)Cn2c(C(=O)N[C@H]3CC[C@H](C(=O)NCCCCCCCC(=O)O)CC3)cc3ccccc32)c1 [NanoLuc Inhibtor 2]
- NanoLuc luminescence (enzyme activity remaining) ([2]; [uM] -0.30103 (log10 concentration)): 0.9
- NanoLuc luminescence (enzyme activity remaining) ([2]; [uM] -0.82391 (log10 concentration)): 1.5 (2×) and 1.6
- NanoLuc luminescence (enzyme activity remaining) ([2]; [uM] -1.34679 (log10 concentration)): 4.4 and 4.7 and 4.6
- NanoLuc luminescence (enzyme activity remaining) ([2]; [uM] -1.86967 (log10 concentration)): 23.6 and 24.5 and 24.3
- NanoLuc luminescence (enzyme activity remaining) ([2]; [uM] -2.39254 (log10 concentration)): 55.8 and 56.1 and 58
- NanoLuc luminescence (enzyme activity remaining) ([2]; [uM] -2.91542 (log10 concentration)): 74.8 and 76.4 and 76
- NanoLuc luminescence (enzyme activity remaining) ([2]; [uM] -3.4383 (log10 concentration)): 81.7 and 82.7 and 82.1

SMILES: O=C1CCC(N2C(=O)c3cccc(OCCOCCCCCCCl)c3C2=O)C(=O)N1 (stereo not drawn) [HC3]
- Blank corrected (470-80) [1, 4]: 383533 and 318115 and 323446 and 301555
- Fold Change [1, 4]: 27.1169 and 22.4917 and 22.8686 and 21.3208
- Blank corrected (470-80) [1, 5]: 323125 and 344451 and 351301 and 328848
- Fold Change [1, 5]: 22.8459 and 24.3537 and 24.838 and 23.2505
- Blank corrected (470-80) [1, 6]: 366778 and 337071 and 347923 and 313983
- Fold Change [1, 6]: 25.9323 and 23.8319 and 24.5992 and 22.1995
- Blank corrected (470-80) [1, 7]: 388451 and 372097 and 370806 and 376397
- Fold Change [1, 7]: 27.4646 and 26.3084 and 26.2171 and 26.6124

SMILES: CCc1cccc(N(CC)C(=O)Cn2c(C(=O)NC3CCC(C(=O)NCCCCCCCC(=O)NCCCCCCOc4cccc5c4C(=O)N(C4CCC(=O)NC4=O)C5=O)CC3)cc3ccccc32)c1 (stereo not drawn) [NC3]
- degradation of the H-E-N-F substrate protein by Western blot, comparison of NanoTACs [3]: consistently outperforming the first analogue NC1
- viable cells (PI exclusion) (wild-type HT29 cells; TNF+SM+IDN): 7.5 and 6.4 and 5.5
- viable cells (PI exclusion) (wild-type HT29 cells; Unt (no death stimulus)): 69.5 and 75.6 and 73.1

SMILES: CCN(C(=O)Cn1c(C(=O)N[C@H]2CC[C@H](C(=O)NCCCCCCCC(=O)O)CC2)cc2sccc21)c1cccc(C)c1 [NanoLuc inhibitor 1]
- IC50 (NanoLuc): 31 nM

SMILES: O=C(COCCOCCCCCCCl)NCCCCNc1cccc2c1C(=O)N(C1CCC(=O)NC1=O)C2=O (stereo not drawn) [HC2]
- Blank corrected (470-80) [1, 4]: 420571 and 387799 and 422451 and 372874
- Fold Change [1, 4]: 29.7356 and 27.4185 and 29.8685 and 26.3633
- Blank corrected (470-80) [1, 5]: 400261 and 371225 and 406289 and 348754
- Fold Change [1, 5]: 28.2996 and 26.2467 and 28.7258 and 24.6579
- Blank corrected (470-80) [1, 6]: 327362 and 397295 and 324101 and 372826
- Fold Change [1, 6]: 23.1455 and 28.0899 and 22.9149 and 26.3599
- Blank corrected (470-80) [1, 7]: 379647 and 379271 and 373688 and 369126
- Fold Change [1, 7]: 26.8422 and 26.8156 and 26.4208 and 26.0983
